From US8541572B2

Test system: TNF-α production in LPS-stimulated human whole blood
Assay: Inhibition of TNF-α production from human whole blood (hWBA)
Assay type: cell-based
Settings: Homo sapiens, IC50 for TNF-α production, LPS-stimulated human whole blood; read-out: hWBA

| SMILES | IC50 [µM] |
| --- | --- |
| COc1ccc2c(c1)C(=O)N(C[C@@]1(C#Cc3ccc(C(=O)NS(C)(=O)=O)nc3)NC(=O)NC1=O)C2 [Compound 902] | 1.37 |
| COC(=O)Cc1ccc(C#C[C@]2(CN3Cc4ccc(OC)cc4C3=O)NC(=O)NC2=O)cc1 [Compound 2284] | 0.379 |

Same assay, conditions: Homo sapiens, IC50 for inhibition of TNF-α production, LPS-stimulated human whole blood; read-out: hWBA

| SMILES | IC50 [µM] |
| --- | --- |
| COc1ccc2c(c1)C(=O)N(C[C@@]1(C#Cc3ccc(-c4cnccc4OC)nc3)NC(=O)NC1=O)C2 [Compound 1105] | 5.38 |
| COc1ccc2c(c1)C(=O)N(C[C@@]1(C#Cc3ccc(OC)nc3OC)NC(=O)NC1=O)C2 [Compound 2230] | 1 |
| COc1ccc2c(c1)C(=O)N(C[C@@]1(C#Cc3ccc(-c4ccc(F)cc4O)nc3)NC(=O)NC1=O)C2 [Compound 1316] | 9.46 |
| COc1ccc2c(c1F)C(=O)N(C[C@@]1(C#Cc3ccc(-c4cccc(N5CCN(C6CCCCC6)CC5)n4)c(F)c3)NC(=O)NC1=O)C2 [Compound 994] | 2.43 |
| COc1ccc2c(c1)C(=O)N(C[C@@]1(C#Cc3ccc(-n4cnc(CCNC(C)=O)c4)nc3)NC(=O)NC1=O)C2 [Compound 1130] | 0.524 |
| COc1ccc2c(c1)C(=O)N(C[C@@]1(C#Cc3ccc(-c4ccccc4O)cc3)NC(=O)NC1=O)C2 [Compound 969] | 0.652 |
| COc1ccc2c(c1)C(=O)N(C[C@@]1(C#Cc3nc(-c4cccc(C#N)c4)ccc3OC)NC(=O)NC1=O)C2 [Compound 1501] | 1000 |

Same assay, conditions: IC50 for TNF-α production, LPS-stimulated human whole blood; read-out: hWBA

| IC50 [µM] | SMILES |
| --- | --- |
| 0.243 | COc1ccc2c(c1)C(=O)N(C[C@@]1(C#Cc3ccc(C4(C)NC(=O)NC4=O)c(F)c3)NC(=O)NC1=O)C2 (some centres unmarked) [Compound 2282] |
| 0.372 | COc1ccc2c(c1)C(=O)N(C[C@@]1(C#Cc3ccc(-c4cn[nH]c4)nc3)NC(=O)NC1=O)C2 [Compound 2292] |
| 0.419 | COc1ccc2c(c1)C(=O)N(C[C@@]1(C#Cc3ccc(NCCN(C)C)nc3)NC(=O)NC1=O)C2 [Compound 2289] |

More lines, now with the values behind:

| SMILES | IC50 [µM] |
| --- | --- |
| CCN1CCC(C(=O)OC)(c2ccc(C#C[C@]3(CN4Cc5ccc(OC)cc5C4=O)NC(=O)NC3=O)cc2)CC1 [Compound 2276] | 0.288 |
| COc1ccc2c(c1)C(=O)N(C[C@@]1(C#Cc3cccnc3-c3cnn(C)c3)NC(=O)NC1=O)C2 [Compound 2263] | 2.22 |
| COc1ccc2c(c1F)C(=O)N(C[C@@]1(C#Cc3cccnc3)NC(=O)NC1=O)C2 [Compound 2267] | 0.134 |
| COc1ccc2c(c1)C(=O)N(C[C@@]1(C#Cc3ccc(C(=NO)N4CCN(C)CC4)nc3)NC(=O)NC1=O)C2 [Compound 953] | 0.087 |
| COc1ccc2c(c1)C(=O)N(CC1(C#Cc3cnc(N4CCC5(CC4)NC(=O)NC5=O)nc3N)NC(=O)NC1=O)C2 (centres unmarked) [Compound 2310] | 0.557 |

Same assay, conditions: IC50 for inhibition of TNF-α production, LPS-stimulated human whole blood; read-out: hWBA

| IC50 [µM] | SMILES |
| --- | --- |
| 0.244 | COc1ccc2c(c1)C(=O)N(C[C@@]1(C#Cc3ccc(C(O)C4CCN(C)CC4)cc3)NC(=O)NC1=O)C2 (some centres unmarked) [Compound 500] |
| 0.156 | COc1ccc2c(c1)C(=O)N(C[C@@]1(C#Cc3ccc4c(O)n[nH]c4c3)NC(=O)NC1=O)C2 [Compound 748] |
| 0.26 | COc1ccc2c(c1)C(=O)N(C[C@@]1(C#Cc3cncc(-c4cn[nH]c4)c3)NC(=O)NC1=O)C2 [Compound 2207] |
| 1.01 | COc1ccc2c(c1)C(=O)N(C[C@@]1(C#Cc3ccc4c(-c5ccncc5)n[nH]c4c3)NC(=O)NC1=O)C2 [Compound 734] |

Second part, the compound before the results:

| SMILES | IC50 [µM] |
| --- | --- |
| COc1ccc2c(c1F)C(=O)N(C[C@@]1(C#Cc3ccc(C4(C(N)=O)CCN(C)CC4)cc3)NC(=O)NC1=O)C2 [Compound 1314] | 0.152 |
| COc1ccc2c(c1)C(=O)N(C[C@@]1(C#Cc3nc(N4C(=O)CCC4C)ccc3OC)NC(=O)NC1=O)C2 (some centres unmarked) [Compound 1506] | 9.54 |
| COc1ccc2c(c1)C(=O)N(C[C@@]1(C#Cc3cncc(NC(=O)C4CCN(C)CC4)c3)NC(=O)NC1=O)C2 [Compound 1908] | 0.299 |
| COc1ccc2c(c1F)C(=O)N(C[C@@]1(C#Cc3ccc(CN4CCCCC4)nc3)NC(=O)NC1=O)C2 [Compound 967] | 0.785 |
| COc1ccc2c(c1)C(=O)N(C[C@@]1(C#Cc3nc(-c4cnc(N(C)C)nc4)ccc3OC)NC(=O)NC1=O)C2 [Compound 1510] | 10 |
| COc1ccc2c(c1F)C(=O)N(C[C@@]1(C#Cc3ccc(-c4cccc(N5CCOCC5)n4)cc3)NC(=O)NC1=O)C2 [Compound 995] | 1.64 |
| CCN1CCN(Cc2ccc(C#C[C@]3(CN4Cc5ccc(OC)c(F)c5C4=O)NC(=O)NC3=O)cc2F)CC1 [Compound 983] | 0.25 |
| COc1ccc2c(c1)C(=O)N(C[C@@]1(C#Cc3c(C)ncc(C(=O)O)c3O)NC(=O)NC1=O)C2 [Compound 2232] | 0.699 |

Test system: not listed separately
Assay: Area under the curve determination of plasma levels in rats (rrAUC)
Assay type: in vivo
Settings: rat, oral 10 mg/kg, plasma 0.5-6 h; read-out: RR AUC (nM · h), rapid rat AUC (rrAUC)

| AUC [µM·h] | SMILES |
| --- | --- |
| 0.042 | COc1ccc2c(c1)C(=O)N(C[C@@]1(C#Cc3ccc(C4(C)NC(=O)NC4=O)c(F)c3)NC(=O)NC1=O)C2 (some centres unmarked) [Compound 2282] |
| 0.126 | COc1ccc2c(c1)C(=O)N(C[C@@]1(C#Cc3ccc([C@H]4CCC(=O)N4)cc3)NC(=O)NC1=O)C2 [Compound 2259] |
| 0.924 | COc1ccc2c(c1)C(=O)N(C[C@@]1(C#Cc3ccc(-c4cnn(C)c4)nc3)NC(=O)NC1=O)C2 [Compound 2269] |
| 0.218 | COc1ccc2c(c1)C(=O)N(C[C@@]1(C#Cc3ccc4c(c3)CC[C@@]43NC(=O)NC3=O)NC(=O)NC1=O)C2 [Compound 2314] |
| 0.171 | COc1ccc2c(c1)C(=O)N(C[C@@]1(C#Cc3ccc(F)c(C(O)(O)C(F)(F)F)c3)NC(=O)NC1=O)C2 [Compound 2251] |
| 0.53 | COc1ccc2c(c1)C(=O)N(C[C@@]1(C#Cc3ccc4c(c3)CC[C@]43NC(=O)NC3=O)NC(=O)NC1=O)C2 [Compound 2313] |
| 3.17 | CON=C(c1ccc(C#C[C@]2(CN3Cc4ccc(OC)cc4C3=O)NC(=O)NC2=O)cc1)N1CCOCC1 [Compound 932] |

Second part, the compound before the results:

| SMILES | AUC [µM·h] |
| --- | --- |
| CCN1CCC(C(=O)OC)(c2ccc(C#C[C@]3(CN4Cc5ccc(OC)cc5C4=O)NC(=O)NC3=O)cc2)CC1 [Compound 2276] | 2.32 |
| COc1ccc2c(c1)C(=O)N(C[C@@]1(C#Cc3cccnc3-c3cnn(C)c3)NC(=O)NC1=O)C2 [Compound 2263] | 0.187 |
| COc1ccc2c(c1F)C(=O)N(C[C@@]1(C#Cc3cccnc3)NC(=O)NC1=O)C2 [Compound 2267] | 2.44 |

Same assay, conditions: rat, oral 10 mg/kg, plasma 0.5-6 h post-dosing; read-out: RR AUC

| AUC [µM·h] | SMILES |
| --- | --- |
| 2.6 | COc1ccc2c(c1)C(=O)N(C[C@@]1(C#Cc3ccc(C(N)C(F)(F)F)cc3)NC(=O)NC1=O)C2 (some centres unmarked) [Compound 300] |
| 0.243 | COc1ccc2c(c1)C(=O)N(C[C@@]1(C#Cc3ccc(-c4noc(C(C)C)n4)cc3)NC(=O)NC1=O)C2 [Compound 1505] |
| 0.011 | COc1ccc2c(c1)C(=O)N(C[C@@]1(C#Cc3ccc(C(O)C4CCN(C)CC4)cc3)NC(=O)NC1=O)C2 (some centres unmarked) [Compound 500] |
| 0.357 | COc1ccc2c(c1)C(=O)N(C[C@@]1(C#Cc3ccc(-c4cc(N)n(C)n4)cc3)NC(=O)NC1=O)C2 [Compound 709] |
| 0.012 | COc1ccc2c(c1)C(=O)N(C[C@@]1(C#Cc3ccc4c(c3)CN(C)C(=O)N4)NC(=O)NC1=O)C2 [Compound 306] |
| 0.012 | COc1ccc2c(c1)C(=O)N(C[C@@]1(C#Cc3ccc4c(N)nn(C)c4c3)NC(=O)NC1=O)C2 [Compound 718] |
| 0.025 | COc1ccc2c(c1)C(=O)N(C[C@@]1(C#Cc3ccc(N4C(=O)CCC4C(=O)NC4CC4)cc3)NC(=O)NC1=O)C2 (some centres unmarked) [Compound 1902] |
| 0.082 | COc1ccc2c(c1)C(=O)N(C[C@@]1(C#Cc3ccc4c(c3)c(N)nn4C)NC(=O)NC1=O)C2 [Compound 746] |

More lines, now with the values behind:

| SMILES | AUC [µM·h] |
| --- | --- |
| COc1ccc2c(c1F)C(=O)N(C[C@@]1(C#Cc3ccc(C4(C(N)=O)CCN(C)CC4)cc3)NC(=O)NC1=O)C2 [Compound 1314] | 0.016 |
| COc1ccc2c(c1)C(=O)N(C[C@@]1(C#Cc3nc(N4C[C@H](O)CC4=O)ccc3OC)NC(=O)NC1=O)C2 [Compound 1503] | 0.035 |
| COc1ccc2c(c1F)C(=O)N(C[C@@]1(C#Cc3ccc(C4(C)NC(=O)NC4=O)c(F)c3)NC(=O)NC1=O)C2 (some centres unmarked) [Compound 1302] | 5.64 |
| COc1ccc2c(c1)C(=O)N(C[C@@]1(C#Cc3cc(Cl)cnc3N)NC(=O)NC1=O)C2 [Compound 2248] | 4.04 |
| COc1ccc2c(c1F)C(=O)N(C[C@@]1(C#Cc3cncc(F)c3)NC(=O)NC1=O)C2 [Compound 1310] | 1.77 |
| COc1ccc2c(c1F)C(=O)N(C[C@@]1(C#Cc3ccc(C4(O)CCNCC4)cc3)NC(=O)NC1=O)C2 [Compound 1701] | 0.041 |
